The values below come from patent US11117883B2 (Ariad Pharmaceuticals, Inc., priority 2016, dated 2021).

Structures are written as SMILES.

In one assay the target is T1, BAF3 FL KIT EX11DEL (Homo sapiens, UniProt P10721, cells depend on it, form not given).
T1 construct: "BAF3 FL KIT EX11DEL"
Kind of assay: c-Kit assay: Ba/F3 KIT mutant viability (Cell Titer-Glo, 72 hours). The class given is cell-based. As to conditions: viability after 72 hours. On the procedure: (§1) KIT cDNAs were synthesized by GenScript and cloned into the pLVX-IRES-Puro vector (Clontech). Viral particles were produced by transfecting pLVX-IRES-puro vectors containing KIT mutant genes into HEK293 cells (Invitrogen) using the Trans-Lentiviral ORF Packaging Kit (Thermo Scientific). 48 hours post-transfection, virus-containing supernatants were harvested and incubated for another 48-72 hours with parental Ba/F3 cells (DSMZ) in the presence of 10 ng/mL […] (R&D Systems). Transduced Ba/F3 cells were then selected by IL-3 withdrawal and puromycin (0.5-1 μg/mL, Invitrogen).
(§2) Cell lines (i.e., EX11DEL, EX11DEL/D816H, EX11DEL/T670I, and EX11DEL/V654A) were plated into 384 well plates using RPMI 1640 supplemented with 10% FBS at densities that produced linear growth and incubated at 37° C. in 5% (v/v) CO2. Cells were treated with eight concentrations of compound over a 4-fold dilution (10 μM to 0.61 nM) and viability was assessed using Cell Titer-Glo assay (Promega) after 72 hours. Data were plotted as percent viability relative to vehicle-treated cells. Dose-responses curves were generated and used to calculate IC50 values.

In assay [1] the target is T2, BAF3 FL KIT EX11DEL/D816H (Homo sapiens, UniProt P10721, D816H, cells depend on it, form not given).
T2 construct: "BAF3 FL KIT EX11DEL/ D816H"
T2 sequence (P10721 with tags, fused parts or gaps DEL557-558/D816H, form open): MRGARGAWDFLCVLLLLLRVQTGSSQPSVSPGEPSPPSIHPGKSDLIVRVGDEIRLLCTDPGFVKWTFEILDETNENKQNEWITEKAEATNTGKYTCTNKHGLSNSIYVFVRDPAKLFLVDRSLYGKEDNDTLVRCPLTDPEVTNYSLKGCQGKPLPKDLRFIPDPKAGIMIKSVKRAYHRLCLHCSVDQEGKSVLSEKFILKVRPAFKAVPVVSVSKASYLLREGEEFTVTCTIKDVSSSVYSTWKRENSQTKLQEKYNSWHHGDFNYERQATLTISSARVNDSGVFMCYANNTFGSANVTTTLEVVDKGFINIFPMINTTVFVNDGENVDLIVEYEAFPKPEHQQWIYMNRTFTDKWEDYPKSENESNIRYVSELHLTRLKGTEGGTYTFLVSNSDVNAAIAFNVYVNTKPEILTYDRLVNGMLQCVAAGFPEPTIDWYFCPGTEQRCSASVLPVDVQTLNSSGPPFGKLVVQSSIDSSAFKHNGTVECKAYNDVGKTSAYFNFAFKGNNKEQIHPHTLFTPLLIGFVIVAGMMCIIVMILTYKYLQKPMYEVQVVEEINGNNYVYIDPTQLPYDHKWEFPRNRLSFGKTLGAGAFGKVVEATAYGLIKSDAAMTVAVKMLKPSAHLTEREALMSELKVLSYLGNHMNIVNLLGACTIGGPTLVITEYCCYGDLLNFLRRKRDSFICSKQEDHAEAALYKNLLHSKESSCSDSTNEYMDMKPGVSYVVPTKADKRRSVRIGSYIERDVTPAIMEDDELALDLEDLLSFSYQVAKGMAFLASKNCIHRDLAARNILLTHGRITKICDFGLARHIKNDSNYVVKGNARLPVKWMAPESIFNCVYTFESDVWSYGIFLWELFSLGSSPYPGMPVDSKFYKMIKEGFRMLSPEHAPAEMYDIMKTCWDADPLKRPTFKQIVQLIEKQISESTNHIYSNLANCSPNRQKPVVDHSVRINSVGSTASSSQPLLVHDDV
The description is as above. Type of assay: cell-based. The following applies: viability after 72 hours. On the procedure:
as §1, §2

Assay [2] concerns the target T3, BAF3 FL KIT EX11DEL/T6701 (Homo sapiens, UniProt P10721, T670I, cells depend on it, form not given).
T3 construct: "BAF3 FL KIT EX11DEL/ T6701"
Described as above. The class given is cell-based. As to conditions: EX11DEL/T6701, viability after 72 hours. On the procedure:
as §1, §2

Assay [3] concerns the target T4, BAF3 FL KIT EX11DEL/V654A (Homo sapiens, UniProt P10721, V654A, cells depend on it, form not given).
T4 construct: "BAF3 FL KIT EX11DEL/ V654A"
The description is as above. The class given is cell-based. The following applies: viability after 72 hours. On the procedure:
as §1, §2

The subject of assay [4] is gastrointestinal stromal tumors (GIST). As to conditions: third line therapy; cited from earlier work.

T3 sequence (P10721 with tags, fused parts or gaps DEL557-558/T670I, form open): as the sequence (P10721 with tags, fused parts or gaps DEL557-558/D816H, form open) above, with T668I, H814D counted along it
T4 sequence (P10721 with tags, fused parts or gaps DEL557-558/V654A, form open): as the sequence (P10721 with tags, fused parts or gaps DEL557-558/D816H, form open) above, with V652A, H814D counted along it
T1 sequence (P10721 with tags, fused parts or gaps DEL557-558): as the sequence (P10721 with tags, fused parts or gaps DEL557-558/D816H, form open) above, with H814D counted along it

For `Cc1ccc(NC(=O)c2cc(C(F)(F)F)ccn2)cc1C#Cc1ccc2c(c1)ncn2-c1cnn(CCN(C)C)c1` [Compound I-41, N-(3-((1-(1-(2-(dimethylamino)ethyl)-1H-pyrazol-4-yl)-1H-benzo[d]imidazol-5-yl)ethynyl)-4-methylphenyl)-4-(trifluoromethyl)picolinamide], the GI50 at BAF3 FL KIT EX11DEL is below 10 nM; in assay [1] it was 100 to 10000 nM; in assay [2] it was 10 to 50 nM; in assay [3], 50 to 100 nM.

On to `CCN(CC)CCn1cc(-n2cnc3cc(C#Cc4cc(NC(=O)c5cc(C(F)(F)F)ccn5)ccc4C)ccc32)cn1` [Compound I-42, N-(3-((1-(1-(2-(diethylamino)ethyl)-1H-pyrazol-4-yl)-1H-benzo[d]imidazol-5-yl)ethynyl)-4-methylphenyl)-4-(trifluoromethyl)picolinamide], for which the GI50 was in the range of 10 to 50 nM at BAF3 FL KIT EX11DEL, 100 to 10000 nM in assay [1], 10 to 50 nM in assay [2] and 50 to 100 nM in assay [3].

As to `Cc1ccc(NC(=O)c2cc(C(F)(F)F)ccn2)cc1C#Cc1ccc2c(c1)ncn2-c1cn[nH]c1` [Compound I-43, N-(3-((1-(1H-pyrazol-4-yl)-1H-benzo[d]imidazol-5-yl)ethynyl)-4-methylphenyl)-4-(trifluoromethyl)picolinamide], the 50% growth inhibitory concentration (GI50) on BAF3 FL KIT EX11DEL was below 10 nM; in assay [1], 50 to 100 nM; in assay [2], 50 to 100 nM; in assay [3], 100 to 10000 nM.

Turning to `Cc1ccc(NC(=O)c2cc(C(F)(F)F)ccn2)cc1C#Cc1ccc2c(c1)ncn2-c1cnn(C)c1` [Compound I-44, N-(4-methyl-3-((1-(1-methyl-1H-pyrazol-4-yl)-1H-benzo[d]imidazol-5-yl)ethynyl)phenyl)-4-(trifluoromethyl)picolinamide], the GI50 at BAF3 FL KIT EX11DEL is below 10 nM; in assay [1], 10 to 50 nM; in assay [2] it was 10 to 50 nM; in assay [3], 10 to 50 nM.

Regarding `Cc1ccc(NC(=O)c2cc(C(F)(F)F)ccn2)cc1C#Cc1ccc2c(c1)ncn2C` [Compound I-45, N-(4-methyl-3-((1-methyl-1H-benzo[d]imidazol-5-yl)ethynyl)phenyl)-4-(trifluoromethyl)picolinamide], the concentration for 50% growth inhibition (GI50) fell in the range of 10 to 50 nM at BAF3 FL KIT EX11DEL, 50 to 100 nM in assay [1], 10 to 50 nM in assay [2] and 50 to 100 nM in assay [3].

For the compound `Cc1ccc(NC(=O)c2ccc(CN3CCN(C)CC3)c(C(F)(F)F)c2)cc1C#Cc1ccc2c(c1)ncn2-c1cnn(C)c1` [Compound I-46, N-(4-methyl-3-((1-(1-methyl-1H-pyrazol-4-yl)-1H-benzo[d]imidazol-5-yl)ethynyl)phenyl)-4-((4-methylpiperazin-1-yl)methyl)-3-(trifluoromethyl)benzamide], the GI50 at BAF3 FL KIT EX11DEL is 10 to 50 nM; in assay [1] it was 100 to 10000 nM; in assay [2] it was 50 to 100 nM; in assay [3], 100 to 10000 nM.

As for `Cc1ccc(NC(=O)c2ccc(CN3CCCC3)c(C(F)(F)F)c2)cc1C#Cc1ccc2c(c1)ncn2-c1cnn(C)c1` [Compound I-47, N-(4-methyl-3-((1-(1-methyl-1H-pyrazol-4-yl)-1H-benzo[d]imidazol-5-yl)ethynyl)phenyl)-4-(pyrrolidin-1-ylmethyl)-3-(trifluoromethyl)benzamide], the 50% growth inhibitory concentration (GI50) on BAF3 FL KIT EX11DEL lay in the range of 10 to 50 nM; in assay [1], 100 to 10000 nM; in assay [2], 50 to 100 nM; in assay [3], 100 to 10000 nM.

For the compound `Cc1ccc(NC(=O)c2ccc(CN3CCOCC3)c(C(F)(F)F)c2)cc1C#Cc1ccc2c(c1)ncn2-c1cnn(C)c1` [Compound I-48, N-(4-methyl-3-((1-(1-methyl-1H-pyrazol-4-yl)-1H-benzo[d]imidazol-5-yl)ethynyl)phenyl)-4-(morpholinomethyl)-3-(trifluoromethyl)benzamide], the GI50 was below 10 nM at BAF3 FL KIT EX11DEL, 50 to 100 nM in assay [1], 10 to 50 nM in assay [2] and 50 to 100 nM in assay [3].

In the case of `Cn1cc(-n2cnc3cc(C#Cc4cccc(NC(=O)c5cc(C(F)(F)F)ccn5)c4)ccc32)cn1` [Compound I-49, N-(3-((1-(1-methyl-1H-pyrazol-4-yl)-1H-benzo[d]imidazol-5-yl)ethynyl)phenyl)-4-(trifluoromethyl)picolinamide], the GI50 at BAF3 FL KIT EX11DEL was below 10 nM; in assay [1], 100 to 10000 nM; in assay [2], 10 to 50 nM; in assay [3] it was 50 to 100 nM.

As for `Cn1cc(-n2cnc3cc(C#Cc4cccc(C(=O)Nc5cc(C(F)(F)F)ccn5)c4)ccc32)cn1` [Compound I-50, 3-((1-(1-methyl-1H-pyrazol-4-yl)-1H-benzo[d]imidazol-5-yl)ethynyl)-N-(4-(trifluoromethyl)pyridin-2-yl)benzamide], the GI50 on BAF3 FL KIT EX11DEL is below 10 nM; in assay [1], 100 to 10000 nM; in assay [2], below 10 nM; in assay [3], 50 to 100 nM.

Take `Cn1cc(-n2cnc3cc(C#Cc4cc(C(=O)Nc5cc(C(F)(F)F)ccn5)ccc4F)ccc32)cn1` [Compound I-51, 4-fluoro-3-((1-(1-methyl-1H-pyrazol-4-yl)-1H-benzo[d]imidazol-5-yl)ethynyl)-N-(4-(trifluoromethyl)pyridin-2-yl)benzamide]: the concentration for 50% growth inhibition (GI50) on BAF3 FL KIT EX11DEL is below 10 nM; in assay [1] it was 100 to 10000 nM; in assay [2], below 10 nM; in assay [3] it was 10 to 50 nM.

As to `Cn1cc(-n2cnc3cc(C#Cc4cc(NC(=O)c5cc(C(F)(F)F)ccn5)ccc4F)ccc32)cn1` [Compound I-52, N-(4-fluoro-3-((1-(1-methyl-1H-pyrazol-4-yl)-1H-benzo[d]imidazol-5-yl)ethynyl)phenyl)-4-(trifluoromethyl)picolinamide], the GI50 at BAF3 FL KIT EX11DEL was below 10 nM; in assay [1], 100 to 10000 nM; in assay [2], below 10 nM; in assay [3], 50 to 100 nM.

Regarding `CNC(=O)c1cc(Oc2ccc(NC(=O)Nc3ccc(Cl)c(C(F)(F)F)c3)c(F)c2)ccn1` [Regorafenib], in assay [4], the ORR was 4.5% and the “median PFS” value is 4.8 months.
